Experimental data published in publication PMC8963254, “Effects of Lysine N-ζ-Methylation in Ultrashort Tetrabasic Lipopeptides (UTBLPs) on the Potentiation of Rifampicin, Novobiocin, and Niclosamide in Gram-Negative Bacteria” (Antibiotics, 2022).
Converted amounts (≈) assume the structure as drawn. “And” between values parts separate entries of the source, which are not always exact repeats. Equal entries are not always repeated. Where two headings read alike, the source gives them in different places.

Assays:
[1] = test system: A. baumannii ATCC 17978; assay type: cell-based, Acinetobacter baumannii
Description: (§1) The synergy of the UTBLPs with various antibiotics was assessed using checkerboard assay as previously described. Briefly, the combination of antibiotic and OMP at varying concentrations were incubated with bacterial inoculum (5 × 10^5 CFU/mL final concentration) at 37 °C for 18 h. Growth in the form of turbidity was confirmed using an EMax Plus microplate reader (Molecular Devices, Union City, CA, USA) at 590 nm. Fractional inhibitory concentration index (FICI) was used to evaluate the interaction between the antibiotic and the OMP. FICI is the sum of the FIC of the antibiotic and the FIC of the OMP. The FIC value is calculated by dividing the MIC of the agents in combination by the MIC of the agent alone. FICI ≤ 0.5 is synergistic, 0.5 < x ≤ 4 is additive, and >4 is antagonistic.

[2] = test system: P. aeruginosa PAO1; assay type: cell-based, Pseudomonas aeruginosa
Description: as §1

[3] = test system: E. coli ATCC 25922; assay type: cell-based, Escherichia coli
Description: as §1

[4] = test system: E. coli 94393; test: microbe, parasite or virus in culture; assay type: cell-based, Escherichia coli; settings: Escherichia coli, 18 h; E. coli 94393 (mcr-1 +); read-out: MICs of various antibiotics
Description: (§2) The in vitro antibacterial activity of the UTBLPs was assessed against wild-type and clinically isolated bacterial strains. To obtain the MIC of the compounds, the microbroth dilution susceptibility assay was performed according to the Clinical and Laboratory Standards Institute (CLSI, Wayne, PA, USA) guidelines and as previously described. Briefly, the compounds at varying concentrations were incubated with bacterial inoculum (5 × 10^5 CFU/mL final concentration) at 37 °C for 18 h. Growth in the form of turbidity was confirmed using an EMax Plus microplate reader (Molecular Devices, San Jose, CA, USA) at 590 nm.

[5] = test system: E. coli 94474; test: microbe, parasite or virus in culture; assay type: cell-based, Escherichia coli; settings: Escherichia coli, 18 h; E. coli 94474 (mcr-1 +); read-out: MICs of various antibiotics
Description: as §2

[6] = test system: K. pneumoniae 113250; test: microbe, parasite or virus in culture; assay type: cell-based, Klebsiella pneumoniae; settings: Klebsiella pneumoniae, 18 h; K. pneumoniae 113250; read-out: MICs of various antibiotics
Description: as §2

[7] = test system: P. aeruginosa PA262-101856; test: microbe, parasite or virus in culture; assay type: cell-based, Pseudomonas aeruginosa; settings: Pseudomonas aeruginosa, PA262101856, 18 h; P. aeruginosa 262-101856; read-out: MICs of various antibiotics
Description: as §2

[8] = test system: P. aeruginosa PA259-96196; test: microbe, parasite or virus in culture; assay type: cell-based, Pseudomonas aeruginosa; settings: Pseudomonas aeruginosa, PA25996196, 18 h; P. aeruginosa 259-96196; read-out: MICs of various antibiotics
Description: as §2

[9] = test system: A. baumannii AB027; test: microbe, parasite or virus in culture; assay type: cell-based, Acinetobacter baumannii; settings: Acinetobacter baumannii, 18 h; A. baumannii AB027; read-out: MICs of various antibiotics
Description: as §2

[10] = test system: A. baumannii AB027; assay type: cell-based, Acinetobacter baumannii
Description: as §1

[11] = test system: A. baumannii 92247; assay type: cell-based, Acinetobacter baumannii
Description: as §1

[12] = test system: P. aeruginosa PA262-101856; assay type: cell-based, Pseudomonas aeruginosa
Description: as §1

[13] = test system: P. aeruginosa PA259-96196; assay type: cell-based, Pseudomonas aeruginosa
Description: as §1

[14] = test system: K. pneumoniae 113250; assay type: cell-based, Klebsiella pneumoniae; settings: rifampicin alone
Description: as §1

[15] = test system: E. coli 94393; assay type: cell-based, Escherichia coli
Description: as §1

[16] = test system: E. coli 94474; assay type: cell-based, Escherichia coli
Description: as §1

[17] = test system: E. cloacae 118564; assay type: cell-based, Enterobacter cloacae
Description: as §1

[18] = test system: E. cloacae 118564; test: microbe, parasite or virus in culture; assay type: cell-based, Enterobacter cloacae; settings: Enterobacter cloacae, 18 h; E. cloacae 118564; read-out: MICs of various antibiotics
Description: as §2

[19] = test system: MRSA ATCC 33592; assay type: cell-based, Staphylococcus aureus; settings: chloramphenicol alone
Description: as §1

[20] = test system: S. aureus ATCC 29213; assay type: cell-based, Staphylococcus aureus; settings: chloramphenicol alone
Description: as §1

[21] = test system: E. faecalis ATCC 29212; assay type: cell-based, Enterococcus faecalis; settings: chloramphenicol alone
Description: as §1

[22] = test system: MRSE 61589; assay type: cell-based, Staphylococcus epidermidis; settings: chloramphenicol alone
Description: as §1

[23] = test system: MSSE 81388; assay type: cell-based, Staphylococcus epidermidis; settings: chloramphenicol alone
Description: as §1

[24] = test system: E. faecium ATCC 27270; assay type: cell-based, Enterococcus faecium; settings: chloramphenicol alone
Description: as §1

Row | Structure (SMILES) | MIC [4] | MIC [5] | MIC [6] | MIC [7] | MIC [8] | MIC [9] | also measured
1 | O=C(Nc1ccc([N+](=O)[O-])cc1Cl)c1cc(Cl)ccc1O [Niclosamide, niclosamide] | – | – | – | – | – | – | MICantibiotic ([1]; niclosamide alone): 1024 µg/mL and > 1024 µg/mL and 512 µg/mL; MICantibiotic ([2]; niclosamide alone): 1024 µg/mL; MICantibiotic ([3]; niclosamide alone): > 128 µg/mL and > 256 µg/mL
2 | CN(C)c1cc(CNCC(C)(C)C)c(O)c2c1C[C@H]1C[C@H]3[C@H](N(C)C)C(O)=C(C(N)=O)C(=O)[C@@]3(O)C(O)=C1C2=O [OMC, omadacycline] | 4 µg/mL (≈ 7.19 µM) | 16 µg/mL (≈ 28.7 µM) | 2 µg/mL (≈ 3.59 µM) | 64 µg/mL (≈ 115 µM) | 64 µg/mL (≈ 115 µM) | 1 µg/mL (≈ 1.8 µM) | –
3 | CO[C@H]1/C=C/O[C@@]2(C)Oc3c(C)c(O)c4c(O)c(c(/C=N/N5CCN(C)CC5)c(O)c4c3C2=O)NC(=O)/C(C)=C\C=C\[C@H](C)[C@H](O)[C@@H](C)[C@@H](O)[C@@H](C)[C@H](OC(C)=O)[C@@H]1C [Rifampicin, rifampicin] | – | – | – | – | – | – | MICantibiotic ([1]; rifampicin alone): 1 µg/mL and 2 µg/mL; MICantibiotic ([10]; rifampicin alone): 1 µg/mL; MICantibiotic ([11]; rifampicin alone): 1 µg/mL and 2 µg/mL; MICantibiotic ([12]; rifampicin alone): 512 µg/mL and 1024 µg/mL; MICantibiotic ([2]; rifampicin alone): 16 µg/mL and 8 µg/mL; MICantibiotic ([13]; rifampicin alone): 16 µg/mL; MICantibiotic [14]: 16 µg/mL and 8 µg/mL; MICantibiotic ([3]; rifampicin alone): 4 µg/mL and 2 µg/mL; MICantibiotic ([15]; rifampicin alone): 4 µg/mL; MICantibiotic ([16]; rifampicin alone): 4 µg/mL and 8 µg/mL; MICantibiotic ([17]; rifampicin alone): 8 µg/mL
4 | CO/N=C(\C(=O)N[C@@H]1C(=O)N2C(C(=O)O)=C(COC(C)=O)CS[C@H]12)c1csc(N)n1 [CTX, cefotaxime] | – | – | – | 128 µg/mL (≈ 281 µM) | 2050 µg/mL (≈ 4500 µM) | > 256 µg/mL | –
5 | CO[C@@H]1[C@@H](OC(N)=O)[C@@H](O)[C@H](Oc2ccc3c(O)c(NC(=O)c4ccc(O)c(CC=C(C)C)c4)c(=O)oc3c2C)OC1(C)C [Novobiocin, novobiocin] | – | – | – | – | – | – | MICantibiotic ([10]; novobiocin alone): 8 µg/mL and 16 µg/mL; MICantibiotic ([11]; novobiocin alone): 2 µg/mL and 4 µg/mL; MICantibiotic ([12]; novobiocin alone): 1024 µg/mL and 2048 µg/mL and > 1024 µg/mL; MICantibiotic ([2]; novobiocin alone): 512 µg/mL and 1024 µg/mL; MICantibiotic ([13]; novobiocin alone): 2048 µg/mL and 1024 µg/mL; MICantibiotic ([3]; novobiocin alone): 32 µg/mL and 64 µg/mL; MICantibiotic ([15]; novobiocin alone): 128 µg/mL and 64 µg/mL; MICantibiotic ([16]; novobiocin alone): 256 µg/mL and 128 µg/mL; MICantibiotic ([17]; novobiocin alone): 256 µg/mL
6 | NC[C@H]1O[C@H](O[C@H]2[C@H](O)[C@@H](O[C@H]3O[C@H](CO)[C@@H](O)[C@H](N)[C@H]3O)[C@H](N)C[C@@H]2N)[C@H](N)C[C@@H]1O [TOB, tobramycin] | ≤ 0.5 µg/mL | 32 µg/mL (≈ 68.4 µM) | ≤ 0.5 µg/mL | 1020 µg/mL (≈ 2190 µM) | 256 µg/mL (≈ 548 µM) | – | MIC [18]: 1 µg/mL (≈ 2.14 µM)
7 | O=C(N[C@H](CO)[C@H](O)c1ccc([N+](=O)[O-])cc1)C(Cl)Cl [Chloramphenicol, chloramphenicol, reference compound] | 4 µg/mL (≈ 12.4 µM) | 4 µg/mL (≈ 12.4 µM) | 4 µg/mL (≈ 12.4 µM) | 2050 µg/mL (≈ 6340 µM) | 1020 µg/mL (≈ 3170 µM) | 128 µg/mL (≈ 396 µM) | MICchloramphenicol [19]: 64 µg/mL; MICchloramphenicol [20]: 8 µg/mL and 16 µg/mL; MICantibiotic ([1]; chloramphenicol alone): 128 µg/mL and 64 µg/mL; MICchloramphenicol [21]: 4 µg/mL and 8 µg/mL; MICantibiotic ([2]; chloramphenicol alone): 32 µg/mL and 16 µg/mL; MICchloramphenicol [22]: 8 µg/mL and 16 µg/mL; MICchloramphenicol [23]: 4 µg/mL and 8 µg/mL; MICchloramphenicol [24]: 8 µg/mL and 4 µg/mL
8 | C[C@H]1[C@H](NC(=O)/C(=N\OC(C)(C)C(=O)O)c2csc(N)n2)C(=O)N1S(=O)(=O)O [AZT, aztreonam] | ≤ 0.12 µg/mL | ≤ 0.12 µg/mL | ≤ 0.12 µg/mL | 32 µg/mL (≈ 73.5 µM) | 32 µg/mL (≈ 73.5 µM) | – | MIC [18]: ≤ 0.12 µg/mL
9 | C[C@H]1c2cccc(O)c2C(=O)C2=C(O)[C@]3(O)C(=O)C(C(N)=O)=C(O)[C@@H](N(C)C)[C@@H]3[C@@H](O)[C@@H]21 [DOX, doxycycline] | 4 µg/mL (≈ 9 µM) | > 32 µg/mL | 2 µg/mL (≈ 4.5 µM) | 1020 µg/mL (≈ 2300 µM) | 32 µg/mL (≈ 72 µM) | – | MIC [18]: 4 µg/mL (≈ 9 µM)
10 | C[C@H]1COc2c(N3CCN(C)CC3)c(F)cc3c(=O)c(C(=O)O)cn1c23 [LEV, levofloxacin] | 1 µg/mL (≈ 2.77 µM) | 32 µg/mL (≈ 88.6 µM) | 0.125 µg/mL (≈ 0.346 µM) | 64 µg/mL (≈ 177 µM) | 256 µg/mL (≈ 708 µM) | 8 µg/mL (≈ 22.1 µM) | –
11 | CN(C)[C@@H]1C(O)=C(C(N)=O)C(=O)[C@@]2(O)C(O)=C3C(=O)c4c(O)c(NC(=O)CN5CCCC5)cc(F)c4C[C@H]3C[C@@H]12 [ERC, eravacycline] | 0.5 µg/mL (≈ 0.895 µM) | 1 µg/mL (≈ 1.79 µM) | 1 µg/mL (≈ 1.79 µM) | 8 µg/mL (≈ 14.3 µM) | 8 µg/mL (≈ 14.3 µM) | 0.5 µg/mL (≈ 0.895 µM) | –
12 | CO/N=C(\C(=O)N[C@@H]1C(=O)N2C(C(=O)O)=C(CSc3nc(=O)c(=O)[nH]n3C)CS[C@H]12)c1csc(N)n1 [CTR, ceftriaxone] | – | – | – | 64 µg/mL (≈ 115 µM) | > 64 µg/mL | – | –
13 | CC(C)(O/N=C(\C(=O)N[C@@H]1C(=O)N2C(C(=O)[O-])=C(C[n+]3ccccc3)CS[C@H]12)c1csc(N)n1)C(=O)O [CAZ, ceftazidime] | ≤ 0.25 µg/mL | 0.5 µg/mL (≈ 0.915 µM) | 0.5 µg/mL (≈ 0.915 µM) | 16 µg/mL (≈ 29.3 µM) | 512 µg/mL (≈ 937 µM) | – | MIC [18]: 0.5 µg/mL (≈ 0.915 µM)
14 | C[C@@H](O)[C@H]1C(=O)N2C(C(=O)O)=C(S[C@@H]3CN[C@H](CNS(N)(=O)=O)C3)[C@H](C)[C@H]12 [DOR, doripenem] | – | – | – | 16 µg/mL (≈ 38 µM) | > 1020 µg/mL | – | –
15 | C[C@@H](O)[C@H]1C(=O)N2C(C(=O)O)=C(SCCN=CN)C[C@H]12 [IMI, imipenem] | 0.25 µg/mL (≈ 0.835 µM) | 0.25 µg/mL (≈ 0.835 µM) | 0.25 µg/mL (≈ 0.835 µM) | 32 µg/mL (≈ 107 µM) | 32 µg/mL (≈ 107 µM) | 32 µg/mL (≈ 107 µM) | –
16 | C[C@@H](O)[C@H]1C(=O)N2C(C(=O)O)=C(S[C@@H]3CN[C@H](C(=O)Nc4cccc(C(=O)O)c4)C3)[C@H](C)[C@H]12 [ETP, ertapenem] | ≤ 0.03 µg/mL | ≤ 0.03 µg/mL | ≤ 0.03 µg/mL | > 32 µg/mL | > 32 µg/mL | – | –
